Measured values from EP4656722A1, “OR2AT4 RECEPTOR AGONIST APTAMERS AND USES THEREOF” (Fundacion Instituto De Investigacion Sanitaria Fundacion …, priority 2024, dated 2025).

Tests used:
[1] = system: HaCaT-OR2AT4-Myc-DDK transfectants; test: XTT cell proliferation assay in HaCaT-OR2AT4-Myc-DDK transfectants; type: cell-based, human; settings: 250 µM, days 1, 3 and 5, compared to vehicle (Control)
[2] = biological target: T1, OR2AT4 (Homo sapiens, UniProt A6NND4); set-up: host or cells: keratinocytes; settings: cited from earlier work
T1 sequence (A6NND4 1-320): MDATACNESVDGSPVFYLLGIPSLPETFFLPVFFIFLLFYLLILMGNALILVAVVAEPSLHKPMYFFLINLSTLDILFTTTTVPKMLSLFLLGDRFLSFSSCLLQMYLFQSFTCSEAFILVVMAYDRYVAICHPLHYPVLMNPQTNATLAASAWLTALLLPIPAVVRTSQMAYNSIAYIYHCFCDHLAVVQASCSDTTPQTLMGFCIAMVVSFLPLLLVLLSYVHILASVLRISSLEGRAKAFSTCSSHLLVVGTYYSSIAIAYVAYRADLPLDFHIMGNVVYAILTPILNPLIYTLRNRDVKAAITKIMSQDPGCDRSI

[3] = biological target: T1, OR2AT4; test: CRE-luciferase reporter activity assay in 293 cells stably expressing OR2AT4; type: cell-based; set-up: GeneScript (pcDNA3.1-Hygro for GNAL); settings: synthetic odorants 400 µM, 4 hours, clone 293-OR2AT4-Golf-clone#2
Source text: • Figure 1. Generation of a 293 clone that stably expresses the OR2AT4 receptor. The 293-OR2AT4-Golf transfectant was generated by means of calcium phosphate cotransfection into 293 cells of the expression plasmids for the OR2AT4 receptor (NM_001005285, pCMV6-Entry-OR2AT4-Neo; Origene) and for the Golf subunit of G proteins, generated by means of subcloning the hGNAL gene (NM_001261443.1) into the expression plasmid (pcDNA3.1-Hygro, GeneScript). Stable transfectants were selected on medium containing neomycin and hygromycin B, and clone 293-OR2AT4-Golf-clone#2 was obtained by limiting dilution. […] Replicates of the reactions for the target and housekeeping genes, which were performed simultaneously for each template cDNA analysed, were included in triplicate. […] Data normalisation was calculated by means of the formula [Luc/Renilla(N)-Luc/Renilla(lowest)]/[Luc/Renilla(highest)-Luc/Renilla(lowest)]. […] Means were calculated using three replicates per condition, n=3. […] Statistical significance was determined using Student's t test (*p<0.05 and **p<0.001, with respect to control). […] The anti proliferative effect of the aptamers on the K562 cell line was evaluated in a colorimetric proliferation assay based on the reduction of tetrazolium salts (XTT). […]

[4] = system: human hair follicles; settings: ex vivo; cited from earlier work
[5] = system: telogen effluvium; settings: solution containing 1% Sandalore applied for 24 weeks, 60 patients with telogen effluvium; cited from earlier work

Compound	cell proliferation [1]	activation of the OR2AT4 receptor expressed in keratinocytes [2]	cAMP production (normalised luciferase activity) [3]	apoptosis [4]	hair growth [4]	production of the growth factor IGF-1 [4]	degree of hair loss, hair volume, terminal/vellous hair ratio, anagen/catagen-telogen ratio, patient's self-esteem [5]
CC1=CCC(CCC(C)CO)C1(C)C (stereo not shown) [Brahmanol, sandal cyclopentane]	significant proliferative response	capable of activating the OR2AT4 receptor	activated cAMP production	–	–	–	–
CC1=CCC(CCC(C)C(C)O)C1(C)C (stereo not shown) [Sandalore, sandal pentanol]	significant proliferative response	capable of activating the OR2AT4 receptor	activated cAMP production	reducing apoptosis	promotes hair growth	increasing the production	improvement
